Reference: PubChem BioAssay (NCI)
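Following 48 hours of exposure in 96-well plates, responses at five concentrations were used to interpolate endpoints linearly. At the TGI there is no net growth.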

Tests used:
Assay in all cases: inhibition of tumour cell growth, NCI panel, 48 h
786-0 renal = tested on: 786-0 renal
A498 renal = tested on: A498 renal
A549 NSCLC = tested on: A549 NSCLC
ACHN renal = tested on: ACHN renal
CCRF-CEM leukemia = tested on: CCRF-CEM leukemia
COLO 205 colon = tested on: COLO 205 colon
DLD-1 colon = tested on: DLD-1 colon
DMS 114 small cell lung = tested on: DMS 114 small cell lung
DMS 273 small cell lung = tested on: DMS 273 small cell lung
EKVX NSCLC = tested on: EKVX NSCLC
HCC-2998 colon = tested on: HCC-2998 colon
HCT-116 colon = tested on: HCT-116 colon
HCT-15 colon = tested on: HCT-15 colon
HL-60(TB) leukemia = tested on: HL-60(TB) leukemia
HOP-18 NSCLC = tested on: HOP-18 NSCLC
HOP-62 NSCLC = tested on: HOP-62 NSCLC
HOP-92 NSCLC = tested on: HOP-92 NSCLC
HT29 colon = tested on: HT29 colon
IGROV1 ovarian = tested on: IGROV1 ovarian
K-562 leukemia = tested on: K-562 leukemia
KM12 colon = tested on: KM12 colon
KM20L2 colon = tested on: KM20L2 colon
LOX IMVI melanoma = tested on: LOX IMVI melanoma
LXFL 529 NSCLC = tested on: LXFL 529 NSCLC
M14 melanoma = tested on: M14 melanoma
M19-MEL melanoma = tested on: M19-MEL melanoma
MALME-3M melanoma = tested on: MALME-3M melanoma
MOLT-4 leukemia = tested on: MOLT-4 leukemia
NCI-H23 lung = tested on: NCI-H23 lung
NCI-H460 lung = tested on: NCI-H460 lung
NCI-H522 lung = tested on: NCI-H522 lung
OVCAR-3 ovarian = tested on: OVCAR-3 ovarian
OVCAR-4 ovarian = tested on: OVCAR-4 ovarian
OVCAR-5 ovarian = tested on: OVCAR-5 ovarian
OVCAR-8 ovarian = tested on: OVCAR-8 ovarian
RPMI-8226 leukemia = tested on: RPMI-8226 leukemia
RXF 393 renal = tested on: RXF 393 renal
SF-268 CNS = tested on: SF-268 CNS
SF-295 CNS = tested on: SF-295 CNS
SF-539 CNS = tested on: SF-539 CNS
SK-MEL-2 melanoma = tested on: SK-MEL-2 melanoma
SK-MEL-28 melanoma = tested on: SK-MEL-28 melanoma
SK-OV-3 ovarian = tested on: SK-OV-3 ovarian
SN12C renal = tested on: SN12C renal
SNB-19 CNS = tested on: SNB-19 CNS
SNB-75 CNS = tested on: SNB-75 CNS
SNB-78 CNS = tested on: SNB-78 CNS
SW-620 colon = tested on: SW-620 colon
TK-10 renal = tested on: TK-10 renal
U251 CNS = tested on: U251 CNS
UACC-257 melanoma = tested on: UACC-257 melanoma
UACC-62 melanoma = tested on: UACC-62 melanoma
UO-31 renal = tested on: UO-31 renal

Measured: TGI

COc1cccc(NC(=O)CC(=O)N2N=C(n3ccc4ccccc43)CC2c2ccccc2)c1 (stereo not drawn)
> 100 µM: 786-0 renal | A498 renal | A549 NSCLC | ACHN renal | CCRF-CEM leukemia | COLO 205 colon | DLD-1 colon | DMS 114 small cell lung | DMS 273 small cell lung | EKVX NSCLC | HCC-2998 colon | HCT-116 colon | HCT-15 colon | HL-60(TB) leukemia | HOP-18 NSCLC | HOP-62 NSCLC | HOP-92 NSCLC | HT29 colon | IGROV1 ovarian | K-562 leukemia | KM12 colon | KM20L2 colon | LOX IMVI melanoma | LXFL 529 NSCLC | M14 melanoma | M19-MEL melanoma | MALME-3M melanoma | MOLT-4 leukemia | NCI-H23 lung | NCI-H460 lung | NCI-H522 lung | OVCAR-3 ovarian | OVCAR-4 ovarian | OVCAR-5 ovarian | OVCAR-8 ovarian | RPMI-8226 leukemia | RXF 393 renal | SF-268 CNS | SF-295 CNS | SF-539 CNS | SK-MEL-2 melanoma | SK-MEL-28 melanoma | SK-OV-3 ovarian | SN12C renal | SNB-19 CNS | SNB-75 CNS | SNB-78 CNS | SW-620 colon | TK-10 renal | U251 CNS | UACC-257 melanoma | UACC-62 melanoma | UO-31 renal
